Literature values in patent US20210319872A1, “DRUG AND DEVICE COMBINATION PRODUCTS WITH IMPROVED SAFETY AND EFFICACY PROFILES” (priority 2016, published 2021).
Like-named read-outs stand apart in the source and are kept apart here. Each block holds one compound with its values, some of them ahead of it.

Compound: CCCN[C@H]1CCc2nc(N)sc2C1 [Pramipexole (Mirapex)]
Amnesia (in vivo): Neurologic: Amnesia (4% to 6%), Asthenia (Immediate-release,
Asthenia (in vivo): 10% to 14%; extended-release, 3%), Confusion (4% to 10%),
Confusion (in vivo): 10% to 14%; extended-release, 3%), Confusion (4% to 10%),
Dizziness (in vivo): Dizziness (Immediate-release, 3% to 26%; extended-release, 2% to
Dream disorder (in vivo): ≤ 12%), Dream disorder (Up to 11%), Dyskinesia (Immediate-
Dyskinesia (in vivo): release, 18% to 47%; extended-release, 17%), Extrapyramidal
Extrapyramidal movements (in vivo): movements (28%), Headache (Immediate-release, 4% to 16%;
Hallucinations (in vivo): Psychiatric: Hallucinations (5% to 17%)
Sleep attack (in vivo): Neurologic: Sleep attack (2% to 6%), Somnolence (Immediate-
Somnolence (in vivo): release, 6% to 33%; extended-release, 15% to 36%)

Nausea (erythema nodosum leprosum): 4.2%
Rash (erythema nodosum leprosum): nodosum leprosum, 20.8%)
Ischemic heart disease (in vivo): 11.1%
Myocardial infarction (in vivo): Myocardial infarction (1.3%)
Atrial fibrillation, Grade 3/4 (multiple myeloma): 5%
Confusional state (multiple myeloma): 28%
Fever (multiple myeloma): 24%
Indigestion (multiple myeloma): 11%
Leukopenia (multiple myeloma): multiple myeloma, 35%)
Peripheral edema (multiple myeloma): multiple myeloma, 34%)
Pneumonia (multiple myeloma): (multiple myeloma, 15%)
Somnolence (multiple myeloma): ≥ 3%
Tremor (multiple myeloma): 26%)
Weight loss (multiple myeloma): (multiple myeloma, 23%)
Compound: O=C1CCC(N2C(=O)c3ccccc3C2=O)C(=O)N1 (centres unmarked) [Thalomid]
Tremor (erythema nodosum leprosum): Tremor (erythema nodosum leprosum, 4.2%; multiple myeloma,
Serious side effect, Cardiovascular (listed without frequency): Cardiac dysrhythmia
Asthenia (multiple myeloma): 21.9%; multiple myeloma, 24%), Confusional state (multiple
Dizziness (multiple myeloma): 19.2%; multiple myeloma, 23%), Somnolence (erythema nodosum
Dry skin (multiple myeloma): Dermatologic: Dry skin (multiple myeloma, 21%), Rash (erythema
Dyspnea (multiple myeloma): Respiratory: Dyspnea (multiple myeloma, 42%), Pneumonia
Hypocalcemia (multiple myeloma): Endocrine metabolic: Hypocalcemia (multiple myeloma, 72%),
Muscle weakness (multiple myeloma): Musculoskeletal: Muscle weakness (multiple myeloma, 40%)

Compound: CC(CCc1ccccc1)NCC(O)c1ccc(O)c(C(N)=O)c1.Cl (centres unmarked)
Dizziness (in vivo): Neurologic: Dizziness (9% to 20%)
Fatigue (in vivo): Other: Fatigue (11%)
Has tingling sensation (in vivo): Dermatologic: Has tingling sensation (7%.)
Nasal congestion (in vivo): Respiratory: Nasal congestion (3%)
Nausea (in vivo): Gastrointestinal: Nausea (14%)
Orthostatic hypotension (in vivo, iv): Cardiovascular: Orthostatic hypotension (1%, oral; 58%, IV)
Orthostatic hypotension (in vivo, po): Cardiovascular: Orthostatic hypotension (1%, oral; 58%, IV)

Compound: CNCC[C@@H](Oc1ccccc1C)c1ccccc1 [Atomoxetine (Strattera)]
Constipation (in vivo): 18%), Constipation (adult, 8%; pediatric, 1% to 2%), Decrease in
Decrease in appetite (in vivo): appetite (adult, 16%; pediatric, 16%), Nausea (adult, 26%;
Delay when starting to pass urine (in vivo): Renal: Delay when starting to pass urine (adult, 6%)
Dysmenorrhea (in vivo): Reproductive: Dysmenorrhea (adult, 3%), Erectile dysfunction
Erectile dysfunction (in vivo): (adult, 8%)
Headache (in vivo): Neurologic: Headache (pediatric, 19%), Insomnia (adult, 15%;
Increased systolic arterial pressure (in vivo): pressure (adult, 4.2% to 12.4%; pediatric, 4.9% to 12.5%),
Menopausal flushing (in vivo): Other: Menopausal flushing (adult, 3%)
Priapism (in vivo): Reproductive: Priapism (rare)
Seizure (in vivo): 0.1%; pediatric, 0.2%)
Serious side effect, Cardiovascular (in vivo): Cardiovascular: Myocardial infarction, Sudden cardiac death
Serious side effect, Hepatic (in vivo): Hepatic: Injury of liver (Severe), Liver failure
Serious side effect, Neurologic (in vivo): Neurologic: Cerebrovascular accident, Dyskinesia, Seizure (adult,
Serious side effect, Psychiatric (in vivo): Psychiatric: Mania, Psychotic disorder, Suicidal thoughts
Somnolence (in vivo): pediatric, at least 2%), Somnolence (adult, 8%; pediatric, 11%)
Suicidal thoughts (in vivo): (pediatric, 0.4%)
Tachycardia (in vivo): Tachycardia (adult, 1.5% to 22.4%; pediatric, 0.3% to 23.4%)
Vomiting (in vivo): pediatric, 7% to 13%), Vomiting (adult, 4%; pediatric, 11%),
Weight decreased (in vivo): Endocrine metabolic: Weight decreased (adults, 2%; pediatric, 3%
Xerostomia (in vivo): Xerostomia (adult, 20%)

Compound: O=C(O)C(O)C(O)C(=O)O.c1cnc2cc3c(cc2n1)[C@@H]1CNC[C@H]3C1 [Chantix]
Acquired night blindness (in vivo): Ophthalmic: Acquired night blindness (rare), Blurred vision
Angina (in vivo): Cardiovascular: Angina (2.3%), Myocardial infarction (2%)
Constipation (in vivo): Gastrointestinal: Constipation (5% to 8%), Flatulence (6% to 9%),
Depression (in vivo): Psychiatric: Abnormal behavior, Depression (3.5% to 11%),
Dream disorder (in vivo): Neurologic: Dream disorder (9% to 13%), Headache (11% to 19%),
Flatulence (in vivo): Gastrointestinal: Constipation (5% to 8%), Flatulence (6% to 9%),
Headache (in vivo): Neurologic: Dream disorder (9% to 13%), Headache (11% to 19%),
Hostile behavior (in vivo): Hostile behavior (2%), Mood disorder (2.3%), Suicidal behavior,
Insomnia (in vivo): Insomnia (10% to 19%)
Mood disorder (in vivo): Hostile behavior (2%), Mood disorder (2.3%), Suicidal behavior,
Myocardial infarction (in vivo): Cardiovascular: Angina (2.3%), Myocardial infarction (2%)
Nausea (in vivo): Nausea (30%), Vomiting (5% to 11%)
Retinal vascular disorder (in vivo): (infrequent), Retinal vascular disorder (rare), Subcapsular cataract
Serious side effect, Neurologic (in vivo): Neurologic: Cerebrovascular accident
Serious side effect, Psychiatric (in vivo): Psychiatric: Abnormal behavior, Depression (3.5% to 11%),
Subcapsular cataract (in vivo): (rare), Transient blindness (rare), Visual disturbance (infrequent)
Suicidal behavior, and/or ideation (in vivo): and/or ideation (6% to 11%)
Transient blindness (in vivo): (rare), Transient blindness (rare), Visual disturbance (infrequent)
Visual disturbance (in vivo): (rare), Transient blindness (rare), Visual disturbance (infrequent)
Vomiting (in vivo): Nausea (30%), Vomiting (5% to 11%)

Compound: O=C(Nc1c(Cl)cncc1Cl)c1ccc(OC(F)F)c(OCC2CC2)c1 [Daliresp]
Backache (in vivo): Musculoskeletal: Backache (3.2%)
Decrease in appetite (in vivo): 2.1%
Diarrhea (in vivo): 9.5%
Dizziness (in vivo): 2.1%
Headache (in vivo): 4.4%
Influenza (in vivo): Immunologic: Influenza (2.8%)
Insomnia (in vivo): 2.4%
Nausea (in vivo): Nausea (4.7%)
Serious side effect, Psychiatric (listed without frequency): Psychiatric: Suicidal thoughts

Compound: CC(NC(C)(C)C)C(=O)c1cccc(Cl)c1 (centres unmarked) [Bupropion (Wellbutrin)]
Abdominal pain (in vivo): Gastrointestinal: Abdominal pain (2% to 9%), Constipation (5% to
Agitation (in vivo): Psychiatric: Agitation (2% to 9%)
Confusion (in vivo): Neurologic: Confusion (major depressive disorder, 8%), Dizziness
Dizziness (in vivo): (6% to 11%), Headache (25% to 34%), Insomnia (11% to 20%)
Headache (in vivo): (6% to 11%), Headache (25% to 34%), Insomnia (11% to 20%)
Hostile behavior (in vivo): Hallucinations, Hostile behavior (major depressive disorder, 6%),
Insomnia (in vivo): (6% to 11%), Headache (25% to 34%), Insomnia (11% to 20%)
Nasopharyngitis (in vivo): Respiratory: Nasopharyngitis (seasonal affective disorder, 13%),
Nausea (in vivo): 10%), Nausea (13% to 18%), Xerostomia (17% to 26%)
Pharyngitis (in vivo): Pharyngitis (major depressive disorder, 3% to 11%), Upper
Seizure (in vivo): Neurologic: Seizure (major depressive disorder, 0.1% to 0.4%)
Tachycardia (in vivo): Cardiovascular: Tachycardia (major depressive disorder, 11%)
Upper respiratory infection (in vivo): respiratory infection (seasonal affective disorder, 9%)
Weight gain (in vivo): Endocrine metabolic: Weight gain (2% to 9%), Weight loss (major
Weight loss (in vivo): depressive disorder, 14% to 19%)
Xerostomia (in vivo): 10%), Nausea (13% to 18%), Xerostomia (17% to 26%)

Compound: CC(C)NCC(O)COc1ccc(CC(N)=O)cc1 (centres unmarked) [Atenolol (Tenormin)]
Bradyarrhythmia (in vivo): Cardiovascular: Bradyarrhythmia (3% to 18%), Cold extremities
Cold extremities (in vivo): (12%), Hypotension (4% to 25%)
Depression (in vivo): Psychiatric: Depression (up to 12%)
Dizziness (in vivo): Neurologic: Dizziness (13%)
Fatigue (in vivo): Other: Fatigue (up to 26%)
Hypotension (in vivo): (12%), Hypotension (4% to 25%)
Pulmonary embolism (in vivo): Respiratory: Pulmonary embolism (1.2%)

Compound: CCCN(CCC)CCc1cccc2c1CC(=O)N2 [Ropinirole (Requip)]
Abdominal pain (in vivo): Gastrointestinal: Abdominal pain (6% to 7%), Constipation (4% to
Constipation (in vivo): Gastrointestinal: Abdominal pain (6% to 7%), Constipation (4% to
Dyskinesia (in vivo): syndrome, 11%), Dyskinesia (13% to 34%), Headache (6%),
Fatigue (in vivo): Other: Fatigue (8% to 11%)
Hallucinations (in vivo): Psychiatric: Hallucinations (5% to 10%)
Headache (in vivo): syndrome, 11%), Dyskinesia (13% to 34%), Headache (6%),
Hypotension (in vivo): Cardiovascular: Hypotension (2% to 25%), Orthostatic hypotension
Nausea (in vivo): 5%), Nausea (11% to 60%), Vomiting (7% to 12%)
Orthostatic hypotension (in vivo): (Up to 23%)
Syncope (in vivo): disease, 1% to 12%; restless leg syndrome, 1%)
Vomiting (in vivo): 5%), Nausea (11% to 60%), Vomiting (7% to 12%)
